Reference: patent US20140294978A1, “CATIONIC LIPID” (Kyowa Hakko Kirin Co., Ltd., priority 2013, published 2014)

Assays:
Factor VII = test: In vivo drug efficacy: Factor VII protein level in plasma of mice after intravenous f7 siRNA preparations; details: Balb/c mice, 0.3 or 0.1 mg/kg in terms of siRNA, 48 hours after administration, f7 siRNA preparation, FIG. 4
Method: Each of the preparations obtained in Examples 10 and 11 (the compositions containing Compound I-6, I-1, I-7, or I-8, and the nucleic acid) was tested for evaluating the in vivo drug efficacy according to the following method. Incidentally, each preparation was used after it was diluted in accordance with the test.
After mice (Balb/c, obtained from CLEA Japan, Inc.) were housed and acclimated, each preparation was intravenously administered to mice at a dose of 0.3 or 0.1 mg/kg in terms of siRNA concentration. At 48 hours after the administration, blood was collected, and the collected blood was centrifuged at 8000 rpm for 8 minutes at 4° C. using a high speed refrigerated microcentrifuge (TOMY MX305, manufactured by Tomy Seiko Co., Ltd.). The Factor VII protein level in the thus obtained plasma sample was determined as follows. A BIOPHEN VII Kit (Cat. No. A221304, manufactured by ANIARA Company) was used, and according to the method described in the protocol attached to the kit, the absorbance was measured in a standard solution and in the plasma sample using ARVO (405 nm). On the basis of the obtained absorbance, a calibration curve was prepared, and the Factor VII protein level in the plasma was calculated. Incidentally, the number of mice in each group was set to 3.

[1] = Average particle diameter of the lipid nanoparticles in each preparation (Zetasizer Nano ZS); assay type: physicochemical
Description: Each sample was weighed so that the ratio of each of Compounds I-1 to I-5/1,2-dimyristoyl-sn-glycero-3-phosphoethanolamine-N-(methoxy(polyethylene glycol)-2000) sodium salt (PEG-DMPE Na, N-(carbonylmethoxypolyethylene glycol 2000)-1,2-dimyristoyl-sn-glycero-3-phosphoethanolamine sodium salt, manufactured by NOF Corporation)/disteazoylphosphatidyl choline (DSPC, 1,2-distearoyl-sn-glycero-3-phosphocholine, manufactured by NOF Corporation)/choiestercl (manufactured by NOF Corporation)=8.947/1.078/5.707/13.698 mmol/L, and dissolved in 90 vol % ethanol, whereby a solution containing the constituent components of a lipid membrane was prepared. Separately, apo-b siRNA in distilled water (24 mg/mL) was diluted with a Tris-EDTA buffer solution (200 mM Tris-HCl, 20 mM EDTA, manufactured by Invitrogen Co., Ltd.) and a 20 mM citric acid buffer solution (pH 5.0), whereby a 1.5 mg/mL apo-b siRNA aqueous solution (2 mM Tris-EDTA buffer solution, 20 mM citric acid buffer solution, pH 5.0) was prepared.
The obtained lipid solution was heated to 37° C., and a 500 μL portion was transferred to a container for preparing a preparation. The obtained apo-b siRNA aqueous solution (500 μL) was then added thereto while stirring. Then, a 20 mM citric acid buffer solution (containing 300 mM NaCl, pH 6.0, 1000 μL) was added to the obtained lipid nucleic acid mixed suspension (1000 μL) while stirring, and further, DPBS (manufactured by Invitrogen Co., Ltd., 3310 μL) was added dropwise thereto, whereby a crude preparation was obtained. The obtained crude preparation was concentrated by using Amicon Ultra (manufactured by Millipore Co., Ltd.), and further, the solvent was replaced with DPBS, and the resulting mixture was filtered through a 0.2-μm filter (manufactured by Toyo Roshi Kaisha, Ltd.) in a laminar flow cabinet. Further, the siRNA concentration in the obtained preparation was measured, and the preparation was diluted with DPBS so that the siRNA concentration was 0.3 mg/mL, whereby preparations (compositions containing any of Compounds I-1 to I-5, and the nucleic acid) were obtained.
The average particle diameter of the lipid nanoparticles in each preparation was measured using a particle diameter measurement device (Zetasizer Nano ZS, manufactured by Malvern).
Preparations were obtained in the same manner as in Example 9 except that Compounds I-1 to I-5 were changed to DLin-KC2-DMA synthesized by a modified method of the method described in WO2010/042877 and the compounds obtained in Reference Examples 5 to 7 (Compounds VII-1 to VII-3).
The average particle diameter of the lipid nanoparticles in each preparation was measured using a particle diameter measurement device.
Each sample was weighed so that the ratio of Compound I-6/PEG-DMPE Na (manufactured by NOF Corporation)/DSPC (manufactured by NOF Corporation)/cholesterol (manufactured by NOF Corporation)=3.532/0.270/1.156/2.401 mmol/L, and dissolved in 100 volt ethanol, whereby a solution containing the constituent components of a lipid membrane was prepared.
The obtained lipid solution was heated to 37° C., and an 800 μL portion was transferred to a container for preparing a preparation. The obtained f7 siRNA aqueous solution (800 μL) was then added thereto while stirring. Then, a 20 mM citric acid buffer solution (containing 300 mM NaCl, pH 6.0, 1600 μL) was added to the obtained lipid nucleic acid mixed suspension (1600 μL) while stirring, and further, DPBS (manufactured by Invitrogen Co., Ltd., […]) was added dropwise thereto, whereby a crude preparation was obtained. The obtained crude preparation was concentrated by using Amicon Ultra (manufactured by Millipore Co., Ltd.), and further, the solvent was replaced with DPBS, and the resulting mixture was filtered through a 0.45-μm filter (manufactured by Toyo Roshi Kaisha, Ltd.) in a laminar flow cabinet. […]

[2] = tested on: apo-b gene mRNA in human liver cancer-derived cell line HepG2; test: Expression ratio of apo-b mRNA after introduction of preparations into HepG2 cells; assay type: cell-based; details: preparation with apo-b siRNA, nucleic acid 1 to 30 nM, 24 hours, FIG. 1
Description: Each of the preparations obtained in Example 9 (the compositions containing any of Compounds I-1, and I-3 to I-5, and the nucleic acid) and the preparations obtained in Comparative Example 1 (the compositions containing any of DLin-KC2-DMA and Compounds VII-1 to VII-3, and the nucleic acid) was introduced into cells of a human liver cancer-derived cell line HepG2 (HB-8065) by the following method.
Each preparation diluted with Opti-MEM (GIBCO Co., Ltd., 31985) so that the final concentration of the nucleic acid was 1 to 30 nM was dispensed in a 96-well culture plate at 20 μL/well. […]
By using the obtained cDNA as a template and also using a universal probe library (Roche Applied Science, Inc., 04683633001) as the probe and ABI7900HT Fast (manufactured by ABI, Inc.), a PCR reaction was performed according to the method described in the protocol attached thereto, so that the apo-b gene and D-glyceraldehyde-3-phosphate dehydrogenase (hereinafter, represented by “gapdh”) gene, which is a constitutively expressed gene, were subjected to the PCR reaction. Then, the amount of the amplified mRNA was measured for each gene, and aquasi-quantitative value of the apo-b mRNA was calculated using the amount of the amplified gapdh mRNA as the internal control. […]

[3] = preparations of Example 9: cationic lipid/PEG-DMPE Na/DSPC/cholesterol with apo-b siRNA
[4] = preparations of Examples 10 and 11: cationic lipid/PEG-DMPE Na/DSPC/cholesterol with f7 siRNA
[5] = preparations of Comparative Example 1, made as in Example 9, with apo-b siRNA

Compound | Factor VII protein level in the plasma (expression of the Factor VII gene) (Factor VII) | Particle diameter of Preparation obtained [1, 3] [nm] | Particle diameter of Preparation obtained [1, 4] [nm] | Particle diameter of Preparation obtained [1, 5] [nm] | other results
CCCCC/C=C\C/C=C\CCCCCCCCN(CCCCCCCC/C=C\C/C=C\CCCCC)C(=O)OCCCN(C)C [Compound I-1, 3-(Dimethylamino)propyl di((9Z,12Z)-octadeca-9,12-dienyl)carbamate] | strongly suppressed | 151.8 | 118.9 |  | 
CCCCCCCC/C=C\CCCCCCCCN(CCCCCCCC/C=C\CCCCCCCC)C(=O)OCCCN(C)C [Compound I-2, 3-(Dimethylamino)propyl di((Z)-octadec-9-enyl)carbamate] |  | 135.8 |  |  | 
CCCCCC/C=C\CCCCCCCCN(CCCCCCCC/C=C\CCCCCC)C(=O)OCCCN(C)C [Compound I-3, 3-(Dimethylamino)propyl di((Z)-hexadec-9-enyl)carbamate] |  | 150.0 |  |  | 
CCCCC/C=C\C/C=C\CCCCCCCCCCN(CCCCCCCCCC/C=C\C/C=C\CCCCC)C(=O)OCCCN(C)C [Compound I-4, 3-(Dimethylamino)propyl di((11Z,14Z)-icosa-11,14-dienyl)carbamate] |  | 159.0 |  |  | 
CCCCC/C=C\C/C=C\CCCCCCCCN(CCCCCCCC/C=C\C/C=C\CCCCC)C(=O)OCCN(C)C [Compound I-5, 2-(Dimethylamino)ethyl di((9Z,12Z)-octadeca-9,2-dienyl)carbamate] |  | 137.0 |  |  | 
CCCCC/C=C\C/C=C\CCCCCCCCN(CCCCCCCC/C=C\C/C=C\CCCCC)C(=O)OCCC1CCCN1C (stereo not drawn) [Compound I-6, 2-(1-Methylpyrrolidin-2-yl)ethyl di((9Z,12Z)-octadeca-9,12-dienyl)carbamate] | strongly suppressed |  | 121.1 |  | 
CCCCC/C=C\C/C=C\CCCCCCCCN(CCCCCCCC/C=C\C/C=C\CCCCC)C(=O)OCCCN1CCCCC1 [Compound I-7, 3-(Piperidin-1-yl)propyl di((9Z,12Z)-octadeca-9,12-dienyl)carbamate] | strongly suppressed |  | 131.8 |  | 
CCCCC/C=C\C/C=C\CCCCCCCCN(CCCCCCCC/C=C\C/C=C\CCCCC)C(=O)OCCCN1CCCC1 [Compound I-8, 3-(Pyrrolidin-1-yl)propyl di((9Z,12Z)-octadeca-9,2-dienyl)carbamate] | strongly suppressed |  | 121.6 |  | 
CCCCC/C=C\C/C=C\CCCCCCCCN(CCCCCCCC/C=C\C/C=C\CCCCC)C(=O)CCCCN [Compound VII-1, 5-Amino-N,N-di((9Z,12Z)-octadeca-9,12-dienyl)pentanamide, reference compound] |  |  |  | 176.6 | 
CCCCC/C=C\C/C=C\CCCCCCCCN(CCCCCCCC/C=C\C/C=C\CCCCC)C(=O)CCCCN(C)C [Compound VII-2, 5-(Dimethylamino)-N,N-di((9Z,12Z)-octadeca-9,12-dienyl)pentanamide, reference compound] |  |  |  | 160.1 | expression of the apo-b gene mRNA [2]: did not suppress the expression of the apo-b gene mRNA
CCCCC/C=C\C/C=C\CCCCCCCCN(CCCCCCCC/C=C\C/C=C\CCCCC)C(=O)OCCCN [Compound VII-3, 3-Aminopropyl di((9Z,12Z)-octadeca-9,12-dienyl)carbamate, reference compound] |  |  |  | 177.7 | 
CCCCC/C=C\C/C=C\CCCCCCCCC1(CCCCCCCC/C=C\C/C=C\CCCCC)OCC(CCN(C)C)O1 (stereo not drawn) [DLin-KC2-DMA, 2,2-dilinoleyl-4-(2-dimethylaminoethyl)-[1,3]-dioxolane, reference compound] |  |  |  | 159.8 | 
